# Experimental data taken from patent US20060257481A1, “Sustained release formulation and dosing schedule of leukotriene synthesis inhibitor for human therapy” (deCODE Genetics ehf., priority 2005, published 2006).
# Read-outs that look alike come from different tables or passages of the source.
# Key:
# [1] = test system: Amyloid A; assay: Study DG-031-201 cross-over trial: Amyloid A in serum; assay type: in vivo, human; settings: week 6, p=0.05
# Procedure: Patients who met the study eligebility criteria were enrolled and randomized into 3 different dose-level groups: (1) 64 patients on 250 mg/day therapy with DG-031 (250 mg q.d.), vs placebo; (2) 64 patients on 500 mg/day therapy with DG-031 (250 mg b.i.d.) vs placebo; and (3) 63 patients on 750 mg/day therapy with DG-031 (250 mg t.i.d.) vs placebo. […] All patients received 3 tablets per day. Treatment periods, 4 weeks in duration each, were separated by a 2-week washout period. The placebo tablets were identical in shape, color, form and taste to the active tablets except that they contained no active drug ingredients. Treatment with DG-031 or placebo was in addition to the subject's standard care, including all medications and treatment plan as prescribed by the subject's cardiologist prior to enrolment. A total of 191 subjects were enrolled, with 172 completing all 8 visits or 8 patients short of the target of 180 patients. […]
# All data were analyzed according to a pre-established statistical analysis plan (SAP) and by intention-to-treat (ITT). […] The difference between DG-031 and placebo treatment was the primary outcome, assessed separately for each of the biomarkers. […]
# [2] = test system: CRP; assay: Study DG-031-201 cross-over trial: Hs-CRP in serum; assay type: in vivo, human; settings: for CRP: Study 201, 2-6 wks
# Procedure: (§1) Patients who met the study eligebility criteria were enrolled and randomized into 3 different dose-level groups: (1) 64 patients on 250 mg/day therapy with DG-031 (250 mg q.d.), vs placebo; (2) 64 patients on 500 mg/day therapy with DG-031 (250 mg b.i.d.) vs placebo; and (3) 63 patients on 750 mg/day therapy with DG-031 (250 mg t.i.d.) vs placebo. […] All patients received 3 tablets per day. Treatment periods, 4 weeks in duration each, were separated by a 2-week washout period. The placebo tablets were identical in shape, color, form and taste to the active tablets except that they contained no active drug ingredients. Treatment with DG-031 or placebo was in addition to the subject's standard care, including all medications and treatment plan as prescribed by the subject's cardiologist prior to enrolment. A total of 191 subjects were enrolled, with 172 completing all 8 visits or 8 patients short of the target of 180 patients.
# (§2) The primary objective was to determine whether the FLAP inhibitor has a statistically significant effect, compared to placebo, on one or more biomarkers of MI risk, including: (1) ionomycin-induced LTB4 and MPO release by neutrophils ex vivo; (2) MPO, CRP, N-tyrosine, Lp-PLA2 or amyloid A in serum, or (3) LTE4 in urine. The secondary objective was to determine whether the effect of DG-031 was dose-dependent. The tertiary objective was to assess other biomarkers (See Results). Evaluation of safety and tolerability of the drug was also a primary endpoint.
# All data were analyzed according to a pre-established statistical analysis plan (SAP) and by intention-to-treat (ITT). Each arm of the study, as well as pooled sets (combining dose levels), was considered for the primary analysis. Each such set is an AB/BA cross-over design and in the primary analysis of efficacy, the levels of biomarkers of MI risk at the end of the treatment periods (visits 4 and 7) were used as primary response variables. The difference between DG-031 and placebo treatment was the primary outcome, assessed separately for each of the biomarkers. Treatment effect was tested using a two-sample t-test on the period differences for suitably transformed response variables, under an assumption of normality of the transformed data. We report treatment effect as one half of the observed mean differences in the two-sample t-test, with a 95% CI. No pre-tests for carry-over effect were performed as a part of the primary analysis. Tests for carry-over were done and are reported separately from results of primary analysis. All hypotheses were tested at a two-sided nominal significance level of 0.05 and p-values based on t-tests are reported. In addition, for the primary efficacy endpoints where the effects of the two highest doses on 10 primary variables were studied, a randomization test was performed which corrects for multiple testing and ensures that the key results are not affected by distributional concerns. In particular, 1 million permutations of the patients into the different study tracks were performed, generating a reference distribution for the maximum of the 10 t-statistics of the biomarkers under the null hypothesis of no drug effect. By comparing the observed t-statistic of each of the 10 biomarkers to this reference distribution, empirical p-values were computed. […]
# [3] = test system: LTB4 produced by ionomycin-activated neutrophils ex vivo; assay: Study DG-031-201: LTB4 in whole blood ex vivo after ionomycin activation (ELISA); set-up: species or system human
# Procedure: as §1, §2
# All data were analyzed according to a pre-established statistical analysis plan (SAP) and by intention-to-treat (ITT). Each arm of the study, as well as pooled sets (combining dose levels), was considered for the primary analysis. Each such set is an AB/BA cross-over design and in the primary analysis of efficacy, the levels of biomarkers of MI risk at the end of the treatment periods (visits 4 and 7) were used as primary response variables. The difference between DG-031 and placebo treatment was the primary outcome, assessed separately for each of the biomarkers. Treatment effect was tested using a two-sample t-test on the period differences for suitably transformed response variables, under an assumption of normality of the transformed data. We report treatment effect as one half of the observed mean differences in the two-sample t-test, with a 95% CI. No pre-tests for carry-over effect were performed as a part of the primary analysis. Tests for carry-over were done and are reported separately from results of primary analysis. All hypotheses were tested at a two-sided nominal significance level of 0.05 and p-values based on t-tests are reported. In addition, for the primary efficacy endpoints where the effects of the two highest doses on 10 primary variables were studied, a randomization test was performed which corrects for multiple testing and ensures that the key results are not affected by distributional concerns. In particular, 1 million permutations of the patients into the different study tracks were performed, generating a reference distribution for the maximum of the 10 t-statistics of the biomarkers under the null hypothesis of no drug effect. By comparing the observed t-statistic of each of the 10 biomarkers to this reference distribution, empirical p-values were computed. As was stated in the SAP prior to unblinding, it was considered likely that experimental manipulations would alter the effect of the drug on two of the primary markers; this was indeed the case and we are only reporting directly on 8 of the 10 primary markers but all 10 are included in the randomization test.
# Biomarker measurements: The ELISA and mass spectrometry assays used are described in the following references: Profita et al., J Pharmacol Exp Ther. 300:868-75, 2002; Roberts et al., Clin Chem. 47:418-25, 2001; Dada et al., Expert Rev Mol Diagn. […]
# [4] = test system: LDL cholesterol; assay: Study DG-031-201: LDL cholesterol; assay type: in vivo, human; settings: highest dose; [4%,12%], p<0.001
# Procedure: as §1
# 12% for MPO ([2%,21%], p=0.02) at the 750 mg/day dose of DG-031. […] Urine levels of LTE4 increased by 27% in response to the highest dose of DG-031 ([15%,40%], p<0.001). Significant correlation was observed between the change of LTB4 and MPO production (r=0.62 [0.51,0.70], p<0.001) within a period, also when considering only those taking drug where the range of these changes were larger. Correlation was also observed for these variables at baseline. […]
# [5] = test system: LTB4 production (ex vivo); assay: Study DG-031-203 open label dose ranging: capacity for LTB4 production ex vivo; assay type: in vivo, human
# Procedure: The study also collected information on the dose-related effect of DG-031 on capacity for LTB4 production (ex vivo), plasma MPO, and serum-CRP. […] The pattern observed supported a concentration dependent pharmacologic effect of DG-031 on capacity for LTB4 production measured ex vivo. The effects on LTB4 production amounted to a 30% (p=0.016) and 25% (p=0.094) reduction with the 375 mg BID and 250 mg TID doses, respectively.
# [6] = healthy volunteers, cited from earlier work
# [7] = cited from earlier work; for Safety and tolerability: asthma patients
smiles,measurement,setting,value
"O=C(O)[C@@H](c1ccc(OCc2ccc3ccccc3n2)cc1)C1CCCC1 [DG-031, (R)-(+)-alpha-cyclopentyl-4-(2-quinolinylmethoxy)-Benzeneacetic acid]",Reduction of SAA,[1],15%
same,Reduction in CRP,"[2]; 250 mg BID and TID, end of wash-out period (week 6), p=0.02",25%
same,CRP,"[2]; 250 mg BID, p = 0.016",−24%
same,CRP,"[2]; 250 mg QD, NS",−6%
same,Persistence of CRP reduction after week 6,[2]; after end of wash-out period,4 weeks
same,Reduction of CRP,"[2]; higher two dose groups (250 mg BID and 250 mg TID), at 2 weeks, p=0.07, not significant",16%
same,Reduction of capacity for LTB4 production,"[3]; 250 mg BID dose group, p=0.1",18%
same,LTB4 production,"[3]; 250 mg BID, Study 201, NS",−18%
same,Reduction of capacity for LTB4 production,"[3]; 250 mg QD dose group, p=0.22",13%
same,LTB4 production,"[3]; 250 mg QD, Study 201, 64 subjects, NS",−13%
same,Reduction of capacity for LTB4 production,"[3]; 250 mg TID dose group, p=0.008",34%
same,LTB4 production,"[3]; 250 mg TID, St. 201, p = 0.008",−34% (St. 201)
same,Reduction of capacity for LTB4 production,"[3]; 250 mg TID, at steady state Cmin, [0%,56%], p=0.02",30%
same,Reduction of capacity for LTB4 production,"[3]; combined dose groups of 500 mg and 750 mg TDD, p=0.003",about 26%
same,Increase in LDL cholesterol,[4],8%
same,LTB4 production,"[5]; 250 mg TID, St. 203",−25% (St. 203)
same,Reduction of LTB4 production ex vivo,"[5]; 250 mg TID, p=0.094",25%
same,LTB4 production,"[5]; 375 mg BID, Study 203, 2 hours, p = 0.016",−30%
same,Reduction of LTB4 production ex vivo,"[5]; 375 mg BID, p=0.016",30%
same,LTB4 production,"[5]; 375 mg QD, Study 203, 2 hours, NS",−16%
same,Safety and tolerability,"[6]; total daily dose 100, 200, 250, 300, 500, 750 and 1000 mg, less than 14 days",safe and well tolerated
same,Safety and tolerability,"[6]; total daily doses 500 mg and 1000 mg, 14-42 days",safe and well tolerated
same,Tolerability,"[7]; 750 mg/day, previous phase I-II human studies in asthma",well tolerated
same,Safety and tolerability,"[7]; total daily dose 500 mg, greater than 45-365 days",safe and well tolerated
same,Safety and tolerability,"[7]; total daily dose 250, 500, 750 and 1000 mg, 14 days",safe and well tolerated
same,Safety and tolerability,"[7]; total daily doses 100, 200, 250, 500 and 1000 mg, 14-42 days",safe and well tolerated
